In patent US20220348883A1, “HIGH-DENSITY CELL CULTURE METHOD” (AJINOMOTO CO., INC., priority 2020, published 2022):

System: iPS cell 1210B2 strain
Conditions: StemFit AK03N+10 mg/L choline chloride vs StemFit AK03N; suspension culture seeded at 6×10^5 cells/mL; viable cells measured on 8th day of culture; n=1
Description: In the following Example, the proliferation effect of induced pluripotent stem cells (iPS cells) by choline were evaluated. As the iPS cell, 1210B2 strain purchased from iPS Academia Japan was used. In addition, as a medium for iPS cells, a commercially available StemFit AKO3N (Ajinomoto Co., Inc.) was used.
Using a 30 mL single use bioreactor for iPS cells (ABLE: BWV-S03A), iPS cell 1210B2 strain was seeded in StemFit AK03N+10 μM Y-27632 (Wako: 034-24024) at a cell density of 6×10^5 cells/mL and the cells were cultured with stirring in a CO2 incubator under the conditions of 37° C., CO2 concentration=5%, stirring speed=120 rpm. On the second day of seeding, 70% of the medium was replaced with StemFit AK03N. […] The cells were transferred to a micro bioreactor ambr15 (sartorius:001-0881), and stirring culture was continued under the conditions of 37° C., pH=7.2, dissolved oxygen concentration=20%, stirring speed=300 rpm. […] On the 8th day of culture, the number of viable cells was measured using Vi-CELL™ XR (Beckman Coulter), a live/dead cell autoanalyzer.

With C[N+](C)(C)CCO.[Cl-] [choline, choline chloride] the “influence of choline on the proliferation of iPS cells (number of viable cells)” value was “cell proliferation promoting effect”.
